Laboratory results published in US9556165B2 (priority 2012, dated 2017).
≈ marks a conversion by molar mass, not a printed value.

Experiments:
Assay type in all cases: cell-based
E. coli ATCC25922 = test: MIC determination, broth microdilution (CLSI); settings: for MIC: Escherichia coli, ATCC25922, strain 1
K. pneumoniae 60 = test: MIC determination, broth microdilution (CLSI); settings: for MIC: Klebsiella pneumoniae, 60, strain 2
E. cloacae 34654 = test: MIC determination, broth microdilution (CLSI); settings: for MIC: Enterobacter cloacae, 34654, strain 3
C. freundii K21/3034 = test: MIC determination, broth microdilution (CLSI); settings: for MIC: Citrobacter freundii, K21/3034, strain 4
M. morganii 126/3048 = test: MIC determination, broth microdilution (CLSI); settings: for MIC: Morganella morganii, 126/3048, strain 5
P. aeruginosa PAO1 = test: MIC determination, broth microdilution (CLSI); settings: for MIC: Pseudomonas aeruginosa, PAO1, strain 6
[1] = system: P. aeruginosa 2297 (AmpC wt); test: MIC determination, broth microdilution (CLSI); settings: Pseudomonas aeruginosa, strain 7
[2] = system: P. aeruginosa 2297-con (AmpC derepressed); test: MIC determination, broth microdilution (CLSI); settings: for MIC: Pseudomonas aeruginosa, read-out: strain 8 MIC, strain 8
A. baumannii ATCC15308 = test: MIC determination, broth microdilution (CLSI); settings: for MIC: Acinetobacter baumannii, ATCC15308, strain 9
S. maltophilia ICB7569 = test: MIC determination, broth microdilution (CLSI); settings: for MIC: Stenotrophomonas maltophilia, ICB7569, strain 10
S. aureus 133 = test: MIC determination, broth microdilution (CLSI); settings: Staphylococcus aureus, 133, strain 11; read-out: strain 11 MIC
M. catarrhalis ICB489 = test: MIC determination, broth microdilution (CLSI); settings: for MIC: Moraxella catarrhalis, ICB489, strain 12
H. influenzae ATCC 49247 = test: MIC determination, broth microdilution (CLSI); settings: for MIC: Haemophilus influenzae, ATCC49247, strain 13, read-out: strain 13 MIC
B. fragilis 6688 = test: MIC determination, broth microdilution (CLSI); settings: for MIC: Bacteroides fragilis, 6688, strain 15, read-out: strain 15 MIC
C. perfringens DSM756 = test: microbe, parasite or virus in culture; settings: for MIC: Clostridium perfringens, DSM756, read-out: strain 16 MIC, strain 16
E. coli J62 = test: MIC determination, broth microdilution (CLSI); settings: for MIC: Escherichia coli, J62, strain 17, read-out: strain 17 MIC
E. coli J62-TEM-3 = test: MIC determination, broth microdilution (CLSI); settings: for MIC: Escherichia coli, J62TEM3, read-out: strain 18 MIC, strain 18
strain 19 = test: MIC determination, broth microdilution (CLSI)
strain 20 = test: MIC determination, broth microdilution (CLSI)
strain 21 = test: MIC determination, broth microdilution (CLSI)
S. pneumoniae 113 = test: MIC determination, broth microdilution (CLSI); settings: Streptococcus pneumoniae, 113, strain 14; read-out: strain 14 MIC

SMILES | MIC [1] | MIC (S. aureus 133) | MIC (E. coli ATCC25922) | MIC (K. pneumoniae 60) | MIC (E. cloacae 34654) | MIC (C. freundii K21/3034) | MIC (M. morganii 126/3048) | MIC (P. aeruginosa PAO1) | MIC [2] | MIC (A. baumannii ATCC15308) | MIC (S. maltophilia ICB7569) | MIC (M. catarrhalis ICB489) | MIC (H. influenzae ATCC 49247) | MIC (B. fragilis 6688) | MIC (C. perfringens DSM756) | MIC (E. coli J62) | MIC (E. coli J62-TEM-3) | MIC (strain 19) | MIC (strain 20) | MIC (strain 21) | other results
CC1(C)[C@H](NC(=O)/C(=N\OC(COc2ccc(C(=N)N)nc2)C(=O)O)c2csc(N)n2)C(=O)N1OS(=O)(=O)O (mixture of isomers) [Example 36A, (2S and 2R)-2-({[(1Z)-1-(2-Amino-1,3-thiazol-4-yl)-2-{[(3S)-2,2-dimethyl-4-oxo-1-(sulfo-oxy)azetidin-3-yl]amino}-2-oxoethylidene]amino}oxy)-3-[(6-carbamimidoylpyridin-3-yl)oxy]propanoic acid] | 4 µg/mL | ≤ 0.063 µg/mL | – | – | – | – | – | – | – | – | – | – | – | – | – | – | – | – | – | – | strain 1 MIC (E. coli ATCC25922; strain 1): 0.125 µg/mL; strain 2 MIC (K. pneumoniae 60; strain 2): ≦0.063 mg/L; strain 3 MIC (E. cloacae 34654; strain 3): ≦0.063 mg/L; strain 4 MIC (C. freundii K21/3034; strain 4): 0.125 µg/mL; strain 5 MIC (M. morganii 126/3048; strain 5): ≦0.063 mg/L; strain 6 MIC (P. aeruginosa PAO1; strain 6): 4 µg/mL; strain 8 MIC ([2]; strain 8): 4 µg/mL; strain 9 MIC (A. baumannii ATCC15308; strain 9): 4 µg/mL; strain 10 MIC (S. maltophilia ICB7569; strain 10): 2 µg/mL; strain 12 MIC (M. catarrhalis ICB489; strain 12): ≦0.063 mg/L; strain 13 MIC (H. influenzae ATCC 49247; strain 13): 0.5 µg/mL; strain 15 MIC (B. fragilis 6688; strain 15): 8 µg/mL; strain 16 MIC (C. perfringens DSM756; strain 16): 2 µg/mL; strain 17 MIC (E. coli J62; strain 17): 0.125 µg/mL; strain 18 MIC (E. coli J62-TEM-3; strain 18): 8 µg/mL; strain 19 MIC (strain 19): 0.125 µg/mL; strain 20 MIC (strain 20): ≦0.063 mg/L; strain 21 MIC (strain 21): 0.125 µg/mL
CC1(C)[C@H](NC(=O)/C(=N\OCCOc2ccc(C(=N)N)nc2)c2csc(N)n2)C(=O)N1OS(=O)(=O)O [Example 4, (2Z)-2-(2-Amino-1,3-thiazol-4-yl)-2-({2-[(6-carbamimidoylpyridin-3-yl)oxy]ethoxy}imino)-N-[(3)-2,2-dimethyl-4-oxo-1-(sulfooxy)azetidin-3-yl]ethanamide] | 16 µg/mL (≈ 29.5 µM) | ≤ 0.063 µg/mL | 0.125 µg/mL (≈ 0.23 µM) | 0.25 µg/mL (≈ 0.461 µM) | 0.5 µg/mL (≈ 0.922 µM) | 0.125 µg/mL (≈ 0.23 µM) | 0.25 µg/mL (≈ 0.461 µM) | 4 µg/mL (≈ 7.37 µM) | 8 µg/mL (≈ 14.7 µM) | 1 µg/mL (≈ 1.84 µM) | 4 µg/mL (≈ 7.37 µM) | ≤ 0.063 µg/mL | ≤ 0.063 µg/mL | 2 µg/mL (≈ 3.69 µM) | 2 µg/mL (≈ 3.69 µM) | 0.25 µg/mL (≈ 0.461 µM) | 8 µg/mL (≈ 14.7 µM) | 0.125 µg/mL (≈ 0.23 µM) | 0.25 µg/mL (≈ 0.461 µM) | 0.25 µg/mL (≈ 0.461 µM) | MIC (S. pneumoniae 113): 16 µg/mL (≈ 29.5 µM)
CC1(C)[C@H](NC(=O)/C(=N\OCCSc2ccc(C(=N)N)cc2)c2csc(N)n2)C(=O)N1OS(=O)(=O)O [Example 7, (2Z)-2-(2-Amino-1,3-thiazol-4-yl)-2-({2-[(4-carbamimidoylphenyl)sulfanyl]ethoxy}imino)-N-[(3S)-2,2-dimethyl-4-oxo-1-(sulfooxy)azetidin-3-yl]ethanamide] | 16 µg/mL (≈ 28.7 µM) | ≤ 0.063 µg/mL | 0.5 µg/mL (≈ 0.897 µM) | 1 µg/mL (≈ 1.79 µM) | 1 µg/mL (≈ 1.79 µM) | 0.5 µg/mL (≈ 0.897 µM) | 0.5 µg/mL (≈ 0.897 µM) | 8 µg/mL (≈ 14.3 µM) | 8 µg/mL (≈ 14.3 µM) | 2 µg/mL (≈ 3.59 µM) | 4 µg/mL (≈ 7.17 µM) | 0.25 µg/mL (≈ 0.448 µM) | ≤ 0.063 µg/mL | 1 µg/mL (≈ 1.79 µM) | 2 µg/mL (≈ 3.59 µM) | 1 µg/mL (≈ 1.79 µM) | 8 µg/mL (≈ 14.3 µM) | 0.5 µg/mL (≈ 0.897 µM) | 1 µg/mL (≈ 1.79 µM) | 1 µg/mL (≈ 1.79 µM) | MIC (S. pneumoniae 113): 2 µg/mL (≈ 3.59 µM)
N=C(N)c1ccc(OCCO/N=C(\C(=O)NC2C(=O)N(OS(=O)(=O)O)C23CCCC3)c2csc(N)n2)cc1 (stereo not shown) [Example 16, (2Z)-2-(2-Amino-1,3-thiazol-4-yl)-2-{[2-(4-carbamimidoylphenoxy)ethoxy]imino}-N-[2-oxo-1-(sulfooxy)-1-azaspiro[3.4]oct-3-yl]ethanamide] | 32 µg/mL (≈ 56.4 µM) | ≤ 0.063 µg/mL | 1 µg/mL (≈ 1.76 µM) | 1 µg/mL (≈ 1.76 µM) | 1 µg/mL (≈ 1.76 µM) | 2 µg/mL (≈ 3.52 µM) | 0.5 µg/mL (≈ 0.881 µM) | 32 µg/mL (≈ 56.4 µM) | 32 µg/mL (≈ 56.4 µM) | 4 µg/mL (≈ 7.05 µM) | 8 µg/mL (≈ 14.1 µM) | 1 µg/mL (≈ 1.76 µM) | ≤ 0.063 µg/mL | 8 µg/mL (≈ 14.1 µM) | 4 µg/mL (≈ 7.05 µM) | 2 µg/mL (≈ 3.52 µM) | 4 µg/mL (≈ 7.05 µM) | 1 µg/mL (≈ 1.76 µM) | 1 µg/mL (≈ 1.76 µM) | 1 µg/mL (≈ 1.76 µM) | –
